# How the values were obtained:
# [1] = biological target: T1, PKCε (h) (Homo sapiens, UniProt Q02156); assay: In vitro PKCε kinase assay (radiometric, [γ-33P-ATP], HotSpot); type: biochemical; settings: recombinant human PKCε, 10 μM ATP; read-out: IC50 in antagonizing the PKCε
# T1 construct: host or cells: insect cells
# T1 sequence (Q02156 1-737): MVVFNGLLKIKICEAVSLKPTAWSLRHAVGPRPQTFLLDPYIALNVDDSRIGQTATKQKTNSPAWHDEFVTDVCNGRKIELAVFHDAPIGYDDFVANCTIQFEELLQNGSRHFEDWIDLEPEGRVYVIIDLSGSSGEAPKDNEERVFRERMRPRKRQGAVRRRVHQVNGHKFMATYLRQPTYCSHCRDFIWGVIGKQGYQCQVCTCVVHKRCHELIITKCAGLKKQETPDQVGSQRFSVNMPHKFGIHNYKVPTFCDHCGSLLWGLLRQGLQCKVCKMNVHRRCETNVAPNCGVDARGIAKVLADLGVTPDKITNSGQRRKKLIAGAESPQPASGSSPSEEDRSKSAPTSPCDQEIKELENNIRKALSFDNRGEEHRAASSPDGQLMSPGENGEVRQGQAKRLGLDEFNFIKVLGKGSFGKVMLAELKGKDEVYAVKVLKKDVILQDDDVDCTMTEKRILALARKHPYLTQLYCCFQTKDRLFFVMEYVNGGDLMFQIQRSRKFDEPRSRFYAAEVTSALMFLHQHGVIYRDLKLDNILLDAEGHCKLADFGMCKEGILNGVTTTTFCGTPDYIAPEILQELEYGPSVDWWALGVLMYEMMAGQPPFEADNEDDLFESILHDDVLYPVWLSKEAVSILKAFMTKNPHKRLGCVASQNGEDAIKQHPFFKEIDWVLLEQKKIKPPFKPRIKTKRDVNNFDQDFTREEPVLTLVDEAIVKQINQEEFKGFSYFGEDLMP
# Description: There are many in vitro commercially available and validated bioassays (Ma, H., et al, Expert Opin Drug Discov. 2008 June; 3(6): 607-621 and references therein) which can be used to characterize the activities of compounds of the present invention against PKCε protein kinase. Compounds can be tested against the activity of recombinant PKCε. In a final reaction volume of 25 μL, PKCε (h) (0.4 nM, Human recombinant protein expressed in insect cells. Mw=83.7 kDa) is incubated with kinase buffer (20 mM HEPES-HCl, pH 7.5, 10 mM MgCl2, 1 mM EGTA, 0.02% Brij35, 0.1 mM Na3VO4, 0.02 mg/ml BSA, 2 mM DTT, and 1% DMSO), 0.1 mg/mL phosphatidylserine, 10 μg/mL diacylglycerol, 20 μM S25-PKC peptide substrate (RFARKGSLRQKNV-OH, Mw=1561 Da), 10 mM MgAcetate and 10 μM [γ-33P-ATP] (specific activity approx. 500 cpm/pmol). The reaction is initiated by the addition of the MgATP mix. After incubation for 40 minutes at room temperature, the reaction is stopped by the addition of 5 μL of a 3% phosphoric acid solution. 10 μL of the reaction is then spotted onto a P30 filtermat and washed three times for 5 minutes in 75 mM phosphoric acid and once in methanol prior to drying and scintillation counting Control samples are incubated without inhibitor to measure maximal activity or with the general kinase inhibitor Staurosporine (5 μM) to measure complete inhibition. For each compound the % inhibition can be calculated by the formula, or by curve fits: % Inhibition=(Max activity−Activity with compound)/(Max activity−Activity with Control)*100. Compounds with inhibitory activity are assayed using at least 5 concentrations (1 nM-300 μM). Concentrations are adjusted to generate a complete dose-response curve. Each sample is assayed in duplicate and each experiment is repeated three times. Results are fitted by non-linear regression analysis to a sigmoidal dose-response curve with variable slope to calculate Hill slope, log IC50 and Imax values for each inhibitor, using the program Prism 5 (GraphPad Software, Inc., San Diego, Calif.).
# Kinase profiling was performed using HotSpot technology (Reaction Biology Corp. 11 Malvern, Pa., USA). This technology is a radioisotope-based P81 filter-binding assay. Compound of the present invention were dissolved in pure DMSO to make a 10 mM stock, then diluted in pure DMSO to make a serial dilution based on the IC50 ranges. PKCε (h) (0.4 nM, human recombinant protein expressed in insect cells. Mw=83.7 kDa) and substrate (20 μM peptide substrate, [RFARKGSLRQKNV]) were diluted in the reaction buffer (20 mM HEPES-HCl, pH 7.5, 10 mM MgCl2, 1 mM EGTA, 0.02% Brij35, 0.1 mM Na3VO4, 0.02 mg/ml BSA, 2 mM DTT, and 1% DMSO), and then 5 nL of compound was delivered into PKCε (h) and substrate mixture by acoustic technology using Echo 550 (LabCyte Inc., Sunnyvale, Calif.). The reaction was initiated by the addition of [γ-33P-ATP] into the reaction mixture (final concentration was 10 μM) and stopped after at least 40 min incubation at room temperature. The unreacted free 33P-ATP was washed away before detection.
# The intrinsic PKCε antagonist activity of a compound which may be used in the present invention may be determined by these assays. […] Such a result is indicative of the intrinsic activity of the compounds in use as antagonists of PKCε.
# [2] = biological target: T2, PKCε (Homo sapiens, UniProt Q02156); assay: Kinetic analysis of PKCε inhibition (initial velocity vs ATP, Lineweaver-Burk); type: biochemical
# T2 construct: host or cells: insect cells
# Description: FIG. 1. […] (A) Initial velocity (Vi) plotted against ATP concentration at various concentrations of the compound plus vehicle control.
# The above in vitro assay can also be used to measure the initial velocity of the kinase reaction, varying the concentrations of ATP (1-60 μM) or S25 peptide substrate (1-500 nM). Values for km and Vmax are calculated for drug- and vehicle-treated samples by linear regression analysis of double reciprocal Lineweaver Burke plots (see Examples).
smiles,measurement,setting,value
"O=C(NCCCN1CCCC1)c1ccc(/C=C2\Sc3ccccc3N(Cc3ccccc3F)C2=O)cc1 [Compound 481, 4-{(Z/E)-[4-(2-fluorobenzyl)-3-oxo-3,4-dihydro-2H-1,4-benzothiazin-2-ylidene]methyl}-N-[3-(pyrrolidin-1-yl)propyl]benzamide]",IC50,[1],10 to 1000 nM
same,mode of PKCε inhibition with respect to ATP,"[2]; FIG. 1, kinetic analysis",non-competitively with ATP
same,Vmax and km in Lineweaver-Burk double reciprocal plot,"[2]; FIG. 1B, various compound concentrations plus vehicle control (4 conditions)",differences in Vmax but not in km

# Reference: patent US8729081B2, “Compositions and methods for treating alcohol use disorders, pain and other diseases” (VM Discovery Inc., priority 2008, dated 2014)
